The values that follow come from US7560536B2, “Morning glory-derived anticancer agents, and novel ipomoeassin compounds” (Virginia Tech Intellectual Properties, Inc., priority 2005, dated 2009).

For one test, the system named is A2780 human ovarian cancer cell line. In words: Cytotoxicity bioassay against the A2780 ovarian cancer cell line. Type of test: cell-based. The settings on record: A2780 human ovarian cancer cell line; read-out: IC50 against A2780. Here is the method: Cytotoxicity Bioassays. Cytotoxicity measurements were performed against the A2780 ovarian cancer cell line as previously described. The A2780 cell line is a drug-sensitive ovarian cancer cell line.
In the case of `C/C=C(\C)C(=O)OC1C(O)C2OC(COC(=O)CCC(=O)[C@@H](OC(C)=O)CCCCC[C@H](CCC)OC3OC(C)C(OC(C)=O)C(O)C3O2)C1OC(=O)/C=C/c1ccccc1` (stereo partly drawn) [Compound 4, Tetradecanoic acid, 11-[[4-O-acetyl-6-deoxy-2-O-[3-O-[(2E)-2-methyl-1-oxo-2-butenyl]-4-O-[(2E)-1-oxo-3-phenyl-2-propenyl]-β-D-glucopyranosyl]-β-D-galactopyranosyl]oxy]-5-(acetyloxy)-4-oxo-, intramol. 1,6″-ester, (5S,11S)-], the IC50 came to 35 nM.

Still in this test, the particulars now being: Homo sapiens, A2780; read-out: IC50 (concentration that inhibited 50% of the growth of the A2780 human ovarian cell line).
In the case of `C/C=C(\C)C(=O)OC1C(O)C2OC(COC(=O)CCC(=O)[C@@H](OC(C)=O)CCCCC[C@H](CCC)OC3OC(C)C(O)C(O)C3O2)C1OC(=O)/C=C/c1ccccc1` (stereo partly drawn) [Compound 5, Tetradecanoic acid, 5-(acetyloxy)-11-[[6-deoxy-2-O-[3-O-[(2E)-2-methyl-1-oxo-2-butenyl]-4-O-[(2E)-1-oxo-3-phenyl-2-propenyl]-β-D-glucopyranosyl]-β-D-galactopyranosyl]oxy]-4-oxo-, intramol. 1,6″-ester, (5S,11S)-], the IC50 turned out to be 3300 nM.

Consider `C/C=C(\C)C(=O)OC1C(O)C2OC(COC(=O)CCC(=O)CCCCCC[C@H](CCC)OC3OC(C)C(OC(C)=O)C(O)C3O2)C1OC(=O)/C=C/c1ccccc1` (stereo partly drawn) [Compound 1, Tetradecanoic acid, 11-[[4-O-acetyl-6-deoxy-2-O-[3-O-[(2E)-2-methyl-1-oxo-2-butenyl]-4-O-[(2E)-1-oxo-3-phenyl-2-propenyl]-β-D-glucopyranosyl]-β-D-galactopyranosyl]oxy]-4-oxo-, intramol. 1,6″-ester, (11S)-], for which the IC50 turned out to be 500 nM.

Take `C/C=C(\C)C(=O)OC1C(O)C2OC(COC(=O)CCC(=O)[C@@H](O)CCCCC[C@H](CCC)OC3OC(C)C(OC(C)=O)C(O)C3O2)C1OC(=O)/C=C/c1ccccc1` (stereo partly drawn) [Compound 3, Tetradecanoic acid, 11-[[4-O-acetyl-6-deoxy-2-O-[3-O-[(2E)-2-methyl-1-oxo-2-butenyl]-4-O-[(2E)-1-oxo-3-phenyl-2-propenyl]-β-D-glucopyranosyl]-β-D-galactopyranosyl]oxy]-5-hydroxy-4-oxo-, intramol. 1,6″-ester, (5S,11S)-]: the IC50 stood at 2900 nM.

Regarding `C/C=C(\C)C(=O)OC1C(OC(=O)/C=C/c2ccccc2)C2COC(=O)CCC(=O)CCCCCC[C@H](CCC)OC3OC(C)C(OC(C)=O)C(OC(C)=O)C3OC(O2)C1OC(C)=O` (stereo partly drawn) [Compound 6, 3′,2″-O-Diacetyl ipomoeassin A], the IC50 was found to be 15800 nM.

With `C/C=C(\C)C(=O)OC1C(O)C2OC(COC(=O)CCC(=O)CCCCCCC(CCCCC)OC3OC(C)C(OC(C)=O)C(O)C3O2)C1OC(=O)/C=C/c1ccccc1` [Compound 14, Hexadecanoic acid, 11-[[4-O-acetyl-6-deoxy-2-O-[3-O-[(2E)-2-methyl-1-oxo-2-butenyl]-4-O-[(2E)-1-oxo-3-phenyl-2-propenyl]-β-D-glucopyranosyl]-β-D-galactopyranosyl]oxy]-4-oxo-, intramol. 1,6″-ester, (11S)-], the IC50 was 36 nM.

`C/C=C(\C)C(=O)OC1C(O)C2OC(COC(=O)CCC(=O)CCCCCC[C@H](CCC)OC3OC(C)C(O)C(O)C3O2)C1OC(=O)/C=C/c1ccccc1` (stereo partly drawn) [Compound 2, Tetradecanoic acid, 11-[[6-deoxy-2-O-[3-O-[(2E)-2-methyl-1-oxo-2-butenyl]-4-O-[(2E)-1-oxo-3-phenyl-2-propenyl]-β-D-glucopyranosyl]-β-D-galactopyranosyl]oxy]-4-oxo-, intramol. 1,6″-ester, (11S)-]: the IC50 was determined as 400 nM.

Consider `C/C=C(\C)C(=O)OC1C(OC(=O)/C=C/c2ccccc2)C2COC(=O)CCC(=O)[C@@H](OC(C)=O)CCCCC[C@H](CCC)OC3OC(C)C(OC(C)=O)C(OC(C)=O)C3OC(O2)C1OC(C)=O` (stereo partly drawn) [Compound 7, 5,3′,2″-O-Triacetyl ipomoeassin C], for which the IC50 turned out to be 19100 nM.

On to `C/C=C(\C)C(=O)OC1C(O)C2OC(COC(=O)CCC(=O)[C@@H](OC(C)=O)CCCCC[C@H](CCC)OC3OC(C)C(OC(C)=O)C(O)C3O2)C1OC(=O)/C=C/c1ccccc1` (stereo partly drawn) [Compound 4, Tetradecanoic acid, 11-[[4-O-acetyl-6-deoxy-2-O-[3-O-[(2E)-2-methyl-1-oxo-2-butenyl]-4-O-[(2E)-1-oxo-3-phenyl-2-propenyl]-β-D-glucopyranosyl]-β-D-galactopyranosyl]oxy]-5-(acetyloxy)-4-oxo-, intramol. 1,6″-ester, (5S,11S)-], for which the IC50 was 35 nM.
